BindingDB's records for doi:10.1016/s0960-894x(02)00051-3 (Eli Lilly, 2002)
pEC50: −log10 of the molar value.

target: Multidrug resistance-associated protein 1 (ABCC1) (Homo sapiens) (UniProt P33527); assay: In vitro for its inhibitory activity against MRP1-transfected HeLa-T5 cell line in the presence of doxorubicin
Sequence (P33527 whole entry, looked up): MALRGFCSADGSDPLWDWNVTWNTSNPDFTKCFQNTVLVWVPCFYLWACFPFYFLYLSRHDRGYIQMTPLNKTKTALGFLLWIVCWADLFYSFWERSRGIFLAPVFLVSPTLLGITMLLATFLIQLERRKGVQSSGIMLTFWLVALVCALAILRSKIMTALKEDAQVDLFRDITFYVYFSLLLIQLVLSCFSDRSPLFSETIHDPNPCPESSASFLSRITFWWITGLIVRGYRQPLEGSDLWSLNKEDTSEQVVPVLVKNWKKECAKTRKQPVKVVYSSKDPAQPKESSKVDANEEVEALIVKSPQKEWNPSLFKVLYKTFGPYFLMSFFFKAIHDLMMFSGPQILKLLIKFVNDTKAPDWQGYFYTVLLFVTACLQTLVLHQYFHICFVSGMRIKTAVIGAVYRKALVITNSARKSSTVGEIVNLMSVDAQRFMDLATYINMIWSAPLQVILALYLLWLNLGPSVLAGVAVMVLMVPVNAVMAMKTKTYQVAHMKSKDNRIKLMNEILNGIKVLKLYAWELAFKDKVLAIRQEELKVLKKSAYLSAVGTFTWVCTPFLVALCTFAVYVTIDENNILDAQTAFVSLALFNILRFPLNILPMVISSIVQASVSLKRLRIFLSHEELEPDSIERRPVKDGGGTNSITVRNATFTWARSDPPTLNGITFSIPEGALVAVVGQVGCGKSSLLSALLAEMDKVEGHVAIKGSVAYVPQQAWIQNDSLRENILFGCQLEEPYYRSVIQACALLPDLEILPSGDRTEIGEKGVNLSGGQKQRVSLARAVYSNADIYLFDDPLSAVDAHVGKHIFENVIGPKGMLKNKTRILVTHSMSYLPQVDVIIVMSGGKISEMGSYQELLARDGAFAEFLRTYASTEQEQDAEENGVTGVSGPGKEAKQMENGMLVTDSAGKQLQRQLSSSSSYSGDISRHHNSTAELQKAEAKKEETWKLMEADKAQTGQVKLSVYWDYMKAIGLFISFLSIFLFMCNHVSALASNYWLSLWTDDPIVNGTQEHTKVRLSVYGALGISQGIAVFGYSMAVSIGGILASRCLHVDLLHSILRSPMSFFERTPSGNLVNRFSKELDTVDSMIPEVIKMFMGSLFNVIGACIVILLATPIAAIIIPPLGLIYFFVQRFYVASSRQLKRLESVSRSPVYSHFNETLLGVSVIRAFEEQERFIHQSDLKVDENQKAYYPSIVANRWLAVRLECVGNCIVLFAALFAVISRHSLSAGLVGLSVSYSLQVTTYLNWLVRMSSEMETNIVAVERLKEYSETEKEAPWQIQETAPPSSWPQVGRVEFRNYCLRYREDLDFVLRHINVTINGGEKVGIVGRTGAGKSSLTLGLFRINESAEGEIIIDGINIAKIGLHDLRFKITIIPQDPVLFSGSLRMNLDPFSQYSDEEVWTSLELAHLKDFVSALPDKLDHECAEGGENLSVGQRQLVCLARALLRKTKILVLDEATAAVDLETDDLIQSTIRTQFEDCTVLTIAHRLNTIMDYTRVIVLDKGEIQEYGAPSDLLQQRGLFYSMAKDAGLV

| pEC50 | Structure (SMILES) |
| --- | --- |
| 6.19 | COc1cc(N(C)C(=O)Cc2cccc(-n3c(=O)c4c(C)onc4c4c(Cl)cccc43)c2)cc(OC)c1OC [2-[3-(9-Chloro-3-methyl-4-oxo-4H-isoxazolo[4,3-c]quinolin-5-yl)-phenyl]-N-methyl-N-(3,4,5-trimethoxy-phenyl)-acetamide] |
| 5.68 | COc1cc(NC(=O)Cc2cccc(-n3c(=O)c4c(C)onc4c4c(Cl)cccc43)c2)cc(OC)c1 [2-[3-(9-Chloro-3-methyl-4-oxo-4H-isoxazolo[4,3-c]quinolin-5-yl)-phenyl]-N-(3,5-dimethoxy-phenyl)-acetamide] |
| 5.75 | COc1cc(CNCc2cccc(-n3c(=O)c4c(C)onc4c4c(Cl)cccc43)c2)cc(OC)c1OC [9-Chloro-3-methyl-5-{3-[(3,4,5-trimethoxy-benzylamino)-methyl]-phenyl}-5H-isoxazolo[4,3-c]quinolin-4-one] |
| 5.74 | COc1cccc(NC(=O)Cc2cccc(-n3c(=O)c4c(C)onc4c4c(Cl)cccc43)c2)c1 [2-[3-(9-Chloro-3-methyl-4-oxo-4H-isoxazolo[4,3-c]quinolin-5-yl)-phenyl]-N-(3-methoxy-phenyl)-acetamide] |
| 5.40 | Cc1onc2c1c(=O)n(-c1cccc(CC(=O)Nc3ccc4c(c3)OCO4)c1)c1cccc(Cl)c21 [N-Benzo[1,3]dioxol-5-yl-2-[3-(9-chloro-3-methyl-4-oxo-4H-isoxazolo[4,3-c]quinolin-5-yl)-phenyl]-acetamide] |
| 5.10 | Cc1cc(C(=O)NCc2cccc(-n3c(=O)c4c(C)onc4c4c(Cl)cccc43)c2)no1 [5-Methyl-isoxazole-3-carboxylic acid 3-(9-chloro-3-methyl-4-oxo-4H-isoxazolo[4,3-c]quinolin-5-yl)-benzylamide] |
| 5.49 | Cc1onc2c1c(=O)n(-c1cccc(CC(=O)Nc3ccc(F)cc3)c1)c1cccc(Cl)c21 [2-[3-(9-Chloro-3-methyl-4-oxo-4H-isoxazolo[4,3-c]quinolin-5-yl)-phenyl]-N-(4-fluoro-phenyl)-acetamide] |
| 5.83 | COc1cc(OCCc2cccc(-n3c(=O)c4c(C)onc4c4c(Cl)cccc43)c2)cc(OC)c1OC [9-Chloro-3-methyl-5-{3-[2-(3,4,5-trimethoxy-phenoxy)-ethyl]-phenyl}-5H-isoxazolo[4,3-c]quinolin-4-one] |
| < 5.00 | Cc1onc2c1c(=O)n(-c1cccc(CC(=O)Nc3ccc(C(C)(C)C)cc3)c1)c1cccc(Cl)c21 [N-(4-tert-Butyl-phenyl)-2-[3-(9-chloro-3-methyl-4-oxo-4H-isoxazolo[4,3-c]quinolin-5-yl)-phenyl]-acetamide] |
| < 5.00 | Cc1onc2c1c(=O)n(-c1cccc(CC(=O)Nc3ccc(S(N)(=O)=O)cc3)c1)c1cccc(Cl)c21 [2-[3-(9-Chloro-3-methyl-4-oxo-4H-isoxazolo[4,3-c]quinolin-5-yl)-phenyl]-N-(4-sulfamoyl-phenyl)-acetamide] |
| 5.39 | COc1ccc(NC(=O)Cc2cccc(-n3c(=O)c4c(C)onc4c4c(Cl)cccc43)c2)cc1OC [2-[3-(9-Chloro-3-methyl-4-oxo-4H-isoxazolo[4,3-c]quinolin-5-yl)-phenyl]-N-(3,4-dimethoxy-phenyl)-acetamide] |
| < 5.00 | COC(=O)c1ccc(NC(=O)Cc2cccc(-n3c(=O)c4c(C)onc4c4c(Cl)cccc43)c2)cc1 [4-{2-[3-(9-Chloro-3-methyl-4-oxo-4H-isoxazolo[4,3-c]quinolin-5-yl)-phenyl]-acetylamino}-benzoic acid methyl ester] |
| 5.00 | Cc1cc(C(=O)N[C@@H]2c3cc(-n4c(=O)c5c(C)onc5c5c(Cl)cccc54)ccc3C[C@H]2O)no1 [5-Methyl-isoxazole-3-carboxylic acid [(1R,2R)-6-(9-chloro-3-methyl-4-oxo-4H-isoxazolo[4,3-c]quinolin-5-yl)-2-hydroxy-indan-1-yl]-amide] |
| < 5.00 | COc1ccc(NC(=O)Cc2cccc(-n3c(=O)c4c(C)onc4c4c(Cl)cccc43)c2)cc1 [2-[3-(9-Chloro-3-methyl-4-oxo-4H-isoxazolo[4,3-c]quinolin-5-yl)-phenyl]-N-(4-methoxy-phenyl)-acetamide] |
